“Also recorded” adds a separate entry of the source.
Key:
HT22 cells [1] = assay: Glutamic acid-induced cell death, MTT assay; assay type: cell-based; details: MTT 24 hours after glutamic acid, added immediately before glutamic acid
Description: (§1) HT22 cells were cultured in DMEM containing 10% FBS in a 10% CO2 incubator at 37° C. MTT assay was conducted according to a ordinary method by using cells treated as intended as a sample. Specifically, the cells were cultured in a 96-well assay plate and treated as intended. Then, 10 μL of an MTT solution was added to each well, followed by incubation for 4 hours. 100 μL of a reaction stop solution was added thereto. The plate was left overnight, and the absorbance (measurement wavelength: 570 nm, control wavelength: 655 nm) was then measured using a microplate reader. The results are indicated relative to the absorbance of control cells defined as 100%. In this context, the MTT value is a value that indicates mitochondrial reductive capacity. This value correlates with cell viability in many cases and is therefore used as an index of cell viability. It has been confirmed as to the glutamic acid-induced cell death of HT22 cells that the results of MTT assay correlate with cell viability. MTT assay was conducted 24 hours after addition of glutamic acid. GR103691 was added immediately before the addition of glutamic acid (Glu).

HT22 cells [2] = assay: Intracellular reactive oxygen species (ROS) assay with H2DCFDA after hypoxia-reoxygenation loading; assay type: cell-based; details: 3 μM, added immediately before reoxygenation, hypoxia 18 h, reoxygenation 3 h
Description: (§2) HT22 cells were cultured in DMEM containing 10% FBS in a 10% CO2 incubator at 37° C.
(§3) Hypoxia loading was performed by using an oxygen absorber/CO2 generator AnaeroPack Kenki For Cell™, and reoxygenation was performed by restoring the condition to normoxia.
Intracellular ROS levels were measured by using H2DCFDA. Cells were treated as intended and then treated with 5 μM H2DCFDA. After 15 minutes, the cells were observed under a fluorescence microscope (480 nm/526 nm).
Time-dependent change of ROS was examined during reoxygenation for 12 hours after hypoxia for 18 hours (H18). Cells placed under normoxia for the same hours (N30) were used as a control. GR103691 was added at a concentration of 3 μM immediately before reoxygenation (or after 18-hour culture to the control cells).

HT22 cells [3] = assay: Hypoxia/reoxygenation-induced cell death, LDH release assay; assay type: cell-based
Description: as §2, §3
LDH assay was conducted using a supernatant of a medium of cells treated as intended as a sample and a measurement kit (LDH cytotoxic test).
Specifically, the cells were cultured in a 96-well assay plate and treated as intended. Then, 50 μL of only the medium was collected and transferred to a newly prepared plate. A coloring reagent was added to each well. After incubation for 20 minutes, 100 μL of a reaction stop solution was added thereto, and the absorbance at 570 nm was measured using a microplate reader. The results are indicated relative to the absorbance of control cells defined as 100%.
LDH release was measured after hypoxia for 18 hours (H18) and subsequent reoxygenation for 24 hours (R24). Cells placed under normoxia for 42 (18+24) hours (N42) were used as a control. GR103691 was added immediately before reoxygenation (or after 18-hour culture to the control cells).
LDH release was measured after hypoxia for 18 hours (H18) and subsequent reoxygenation for 24 hours (R24). Cells placed under normoxia for 42 (18+24) hours (N42) were used as a control. Nafadotride was added immediately before reoxygenation (or after 18-hour culture for the control cells).

hippocampal CA1 region = assay: Mouse cerebral ischemia/reperfusion model, FJB and ssDNA staining of hippocampal CA1 region; assay type: in vivo, C57BL/6J mice; details: 72 hours after reperfusion
Description: Male C57BL/6J mice (9-12 week old) were used. After halothane anesthesia, the left and right common carotid arteries were ligated for 17 minutes while the cerebral blood flow was monitored. Then, the blood flow was resumed to prepare a cerebral ischemia/reperfusion model. Paraffin sections of the brain were prepared 72 hours after reperfusion according to an ordinary method and immunostained with Fluoro Jade B (FJB) that stains dead cells green or with single-stranded DNA (ssDNA) that permits detection of apoptosis cells by the staining of nuclear fragmentation. The cells were observed under a microscope. GR103691 was administered at a dose of 1, 3, or 10 mg/kg from the tail vein of each mouse within 10 minutes after reperfusion. Moreover, for comparison, edaravone (manufactured by CALBIOCHEM) used for improving neurological symptoms, problems with movement of daily living, and dysfunction at the acute stage of brain infarction was administered at a dose of 3 or 10 mg/kg to each mouse. A saline-administered group and a sham group without only ischemia treatment were observed as controls.
In FIG. 7, the bright green color represents apoptosis cells. Moreover, the number of FJB-positive cells was counted to determine its proportion to the total number of cells (FIG. 8). The results of each group are indicated as mean±standard error.

HT22 cells [4] = assay: Tunicamycin-induced cell death, MTT assay; assay type: cell-based; details: MTT 24 hours after tunicamycin, added immediately before tunicamycin
Description: as §1, with “tunicamycin (TM).” for “glutamic acid.”, “tunicamycin (TM).” for “glutamic acid (Glu).”

[5] = HT22 cells, added immediately before reoxygenation
[6] = HT22 cells, hypoxia 18 h, reoxygenation 24 h, added immediately before reoxygenation
[7] = 10 mg/kg from the tail vein within 10 minutes after reperfusion
[8] = 1, 3, or 10 mg/kg from the tail vein within 10 minutes after reperfusion

SMILES | reduction of MTT value caused by glutamic acid (glutamic acid-induced cell death) (HT22 cells [1]) | transient increase of ROS in H18/R3-treated cells (H2DCFDA-positive cells) (HT22 cells [2]) | LDH release of the control cells (HT22 cells [3]; HT22 cells under normoxia 42 h (N42), added after 18-hour culture) | increase of LDH release caused by H18/R24 (HT22 cells [3]; [5]) | LDH release of H18/R24-treated cells (hypoxia/reoxygenation-induced cell death) (HT22 cells [3]; [6]) | concentration at which the reduction of LDH release of H18/R24-treated cells was significant (HT22 cells [3]; [6]) | cell death in the hippocampal CA1 region (FJB-positive cells) (hippocampal CA1 region; [7]) | ssDNA-positive cells in the hippocampal CA1 region (hippocampal CA1 region; [7]) | cell death in the hippocampal CA1 region (FJB-positive cells) (hippocampal CA1 region; [8]) | ssDNA-positive cells in the hippocampal CA1 region (hippocampal CA1 region; [8]) | reduction of MTT value caused by TM (tunicamycin-induced cell death) (HT22 cells [4]) | decreasing effect on ssDNA-positive cells in the hippocampal CA1 region, compared with GR103691 (hippocampal CA1 region; edaravone 3 or 10 mg/kg) | inhibitory effect on cell death in the hippocampal CA1 region (FJB-positive cells), compared with GR103691 (hippocampal CA1 region; edaravone 3 or 10 mg/kg)
COc1ccccc1N1CCN(CCCCNC(=O)c2ccc(-c3ccc(C(C)=O)cc3)cc2)CC1 [GR103691, 4′-acetyl-N-[4-[4-(2-methoxyphenyl)-1-piperazinyl]butyl]-[1,1′-biphenyl]-4-carboxamide] | significantly recovered the reduction of MTT value | inhibited | not influenced | almost the maximum effect | reduced the LDH release of the H18/R24-treated cells in a concentration-dependent manner | ≥ 1 µM | significantly inhibited | significantly decreased | inhibited such cell death in a dose-dependent manner | decreased by GR103691 in a dose-dependent manner | did not influence the reduction of MTT value |  | 
CC1=NN(c2ccccc2)C(=O)C1 [edaravone, reference compound] |  |  |  |  |  |  |  |  |  |  |  | almost the same level | almost the same level
CCCCN1CCCC1CNC(=O)c1cc(C#N)c2ccccc2c1OC (centres unmarked) [nafadotride, reference compound] |  |  |  | did not inhibit apoptosis; also recorded: did not influence increase of LDH release |  |  |  |  |  |  |  |  | 
